Experimental data reported in the supplement of paper PMC10307832.

Legend:
Assay in all cases: relative viability (nuclei count vs DMSO), 5 days (fraction); higher = more cells survive
PC-14 = system: PC-14
Method in brief: (§1)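 Lung cancer cell lines in 1536-well plates got either a single drug or a fixed anchor-drug dose together with five library-drug doses (not always all listed) in √10 steps, by pin tool, on the day after seeding. Nuclei were counted after 5 days, and relative viability is the treated-to-vehicle ratio of nuclei counts. Values are medians of duplicate plates.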

NCI-H1993 = system: NCI-H1993
Method in brief: as §1

NCI-H647 = system: NCI-H647
Method in brief: as §1

LOU-NH91 = system: LOU-NH91
Method in brief: as §1

NCI-H1650 = system: NCI-H1650
Method in brief: as §1

COR-L23 = system: COR-L23
Method in brief: as §1

NCI-H2085 = system: NCI-H2085
Method in brief: as §1

NCI-H441 = system: NCI-H441
Method in brief: as §1

NCI-H520 = system: NCI-H520
Method in brief: as §1

HCC-44 = system: HCC-44
Method in brief: as §1

ABC-1 = system: ABC-1
Method in brief: as §1

COc1cc(N2CCC(C(N)=O)CC2)ccc1Nc1nc(N)c(Cl)c(Nc2ccccc2S(=O)(=O)C(C)C)n1 [HG-5-88-01] + CC(C)C[C@H](NC(=O)[C@H](Cc1ccccc1)NC(=O)c1cnccn1)B(O)O [Bortezomib] (partner 0.002 µM) showed a relative viability (PC-14; first compound 0.04 µM) of 0.837, a relative viability (PC-14; first compound 0.1265 µM) of 0.969 and a relative viability (PC-14; first compound 0.4 µM) of 0.864. It also gave a relative viability (PC-14; first compound 1.265 µM) of 0.883, a relative viability (PC-14; first compound 4 µM) of 0.316 and a relative viability (NCI-H1993; first compound 0.04 µM) of 1.08. It also gave a relative viability (NCI-H1993; first compound 0.1265 µM) of 1.08, a relative viability (NCI-H1993; first compound 0.4 µM) of 0.971 and a relative viability (NCI-H1993; first compound 1.265 µM) of 0.819. It also gave a relative viability (NCI-H1993; first compound 4 µM) of 1.02, a relative viability (NCI-H647; first compound 0.04 µM) of 1.02 and a relative viability (NCI-H647; first compound 0.1265 µM) of 0.826. It also gave a relative viability (NCI-H647; first compound 1.265 µM) of 1.07, a relative viability (NCI-H647; first compound 4 µM) of 0.967 and a relative viability (LOU-NH91; first compound 0.04 µM) of 0.54. The relative viability (LOU-NH91; first compound 0.1265 µM) was 0.53, the relative viability (LOU-NH91; first compound 0.4 µM) was 0.472 and the relative viability (LOU-NH91; first compound 1.265 µM) was 0.48. It also gave a relative viability (LOU-NH91; first compound 4 µM) of 0.48, a relative viability (NCI-H1650; first compound 0.04 µM) of 0.207 and a relative viability (NCI-H1650; first compound 0.1265 µM) of 0.219. For the same molecule, the relative viability (NCI-H1650; first compound 0.4 µM) was 0.195, the relative viability (NCI-H1650; first compound 1.265 µM) was 0.185 and the relative viability (NCI-H1650; first compound 4 µM) was 0.189. For the same molecule, the relative viability (COR-L23; first compound 0.04 µM) was 1.06, the relative viability (COR-L23; first compound 0.1265 µM) was 1.08 and the relative viability (COR-L23; first compound 0.4 µM) was 0.854. For the same molecule, the relative viability (COR-L23; first compound 1.265 µM) was 0.91, the relative viability (COR-L23; first compound 4 µM) was 0.896 and the relative viability (NCI-H2085; first compound 0.04 µM) was 0.986. For the same molecule, the relative viability (NCI-H2085; first compound 0.1265 µM) was 1.13, the relative viability (NCI-H2085; first compound 0.4 µM) was 0.922 and the relative viability (NCI-H2085; first compound 1.265 µM) was 1.01. The relative viability (NCI-H2085; first compound 4 µM) was 0.917, the relative viability (NCI-H441; first compound 0.04 µM) was 0.579 and the relative viability (NCI-H441; first compound 0.1265 µM) was 0.423. It also gave a relative viability (NCI-H441; first compound 0.4 µM) of 0.622, a relative viability (NCI-H441; first compound 1.265 µM) of 0.558 and a relative viability (NCI-H441; first compound 4 µM) of 0.379. The relative viability (NCI-H520; first compound 0.04 µM) was 0.45, the relative viability (NCI-H520; first compound 0.1265 µM) was 0.633 and the relative viability (NCI-H520; first compound 0.4 µM) was 0.304. It also gave a relative viability (NCI-H520; first compound 1.265 µM) of 0.698, a relative viability (NCI-H520; first compound 4 µM) of 0.546 and a relative viability (HCC-44; first compound 0.04 µM) of 0.901. It also gave a relative viability (HCC-44; first compound 0.1265 µM) of 0.868, a relative viability (HCC-44; first compound 0.4 µM) of 0.679 and a relative viability (HCC-44; first compound 1.265 µM) of 0.832. It also gave a relative viability (HCC-44; first compound 4 µM) of 0.754, a relative viability (ABC-1; first compound 0.04 µM) of 0.335 and a relative viability (ABC-1; first compound 0.1265 µM) of 0.332.
